Measurements: patent publication US20260242390A1, “TOTAL SYNTHESES OF PORTIMINE A AND ANALOGUES THEREOF AS SMALL MOLECULE MODULATORS OF NMD3” (priority 2023, published 2026)

Assays:
Jurkat = experiment: Broad cell line profiling, Jurkat; format: cell-based; settings: Human Leukemia, read-out: PA IC50
Excerpt: (§1) • A panel of human and mouse cancer cell types used to assess the breadth of PA activity, including multiple therapy resistant metastatic mesenchymal tumor cell lines and primary glioblastoma patient-derived metastatic stem/tumor initiating cell populations.

HCC1806 = experiment: Broad cell line profiling, HCC1806; format: cell-based; settings: Homo sapiens; HCC1806, Acantholytic Squamous Carcinoma; read-out: PA IC50
Excerpt: as §1

HeLa = experiment: Broad cell line profiling, HeLa; format: cell-based; settings: Homo sapiens, Cervical Adenocarcinoma, read-out: PA IC50
Excerpt: as §1

LNCaP = experiment: Broad cell line profiling, LNCaP; format: cell-based; settings: Homo sapiens, Prostate Carcinoma, read-out: PA IC50
Excerpt: as §1

B16-F10 = experiment: Broad cell line profiling, B16-F10; format: cell-based; settings: B16-F10, Mouse Melanoma; read-out: PA IC50
Excerpt: as §1

Bcl-xl = Bcl-xl protein level in cells; format: cell-based, human
Method: FIG. 6. Portimine A inhibits S phase entry in Jurkat cells. Portimine A downregulates NMD3 at protein level but upregulates in mRNA level in cells, as well as some essential apoptosis proteins. […] Protein degradation of p53, Mcl1, Bid, Bim, Noxa can be rescued by MG132 or Epoxomicin. (B) NMD3 mRNA increased after PA treatment, but not ePA control compound. Jurkat cells were treated with indicated compounds for 24 hr; Cells were then fixed and perform Propidium Iodide staining.
• 1) Portimine A and its functional analogs show stereo-selective acute toxicity in cancer cells (FIG. 1). […] (B) Structure of portimine related analogs: phenyl-portimine A (Ph-PA, 36) and epi-portimine A (ePA, 38). Structure of fully functionalized portimine A-based epimeric probe pair: portimine A-diazirine-alkyne (PA-DA, 35-2) and epi-portimine A-diazirine-alkyne (ePA-DA, 35-1). (C) Cell viability analysis of portimine A and analogs. Jurkat cells were treated with increasing concentrations of portimine A and analogs for 24 hours. All presented data as mean of biological replicated experiments (n=3). […] Jurkat cells were treated with portimine A or analogs for 12 hours at 10 nM. […] Cell lysates were fractionated by sucrose gradient (5-50%) and each fraction were analyzed by western blot. eIF6 levels increase in 60S subunit fraction and decrease in ribosome-free fractions after PA treatment. […]

## C=CC1=C[C@@H]2[C@@H]3O[C@]4(CC[C@H](O4)C(C)C[C@@H](O)C3=O)CC(O)C3=NCC[C@@]32CC1 (stereo partly drawn) [PA, portimine A]
Jurkat
  IC50: 0.56 nM
HCC1806
  IC50: 0.72 nM
HeLa
  IC50: 1.6 nM
LNCaP
  IC50: 1.7 nM
B16-F10
  IC50: 0.75 nM
Bcl-xl
  Bcl-xl protein level after treatment: downregulated
